Structures can show the parent of a compound that is named as a salt.
Assay: Permanent wave processing of hair, wave efficiency by Kilby method
Settings: for Wave efficiency: compound at 2% in terms of reducing power of thioglycolic acid, soaked at 35° C. for 20 minutes, bromate second liquid 25° C. 10 minutes
Protocol: A permanent wave first liquid was prepared as described below using the alkoxyalkyl mercaptocarboxylate (TGE-1) obtained in Synthetic Example 1. A permanent wave second liquid was prepared as described below. Hair was permanent waved with these liquids, and the wave efficiency was obtained.
[…] The mixing was performed such that the total amount would be 100 g. A permanent wave first liquid was thus prepared.
The agent contained TGE-1 in an amount of 2% in terms of reducing power of thioglycolic acid.
5 g of sodium bromate and 95 g of purified water were mixed together to give a permanent wave second liquid.
The wave efficiency was evaluated by a Kilby method as described in Fragrance Journal Extra Edition (1984, No. 5, P. 442). A liquid containing cysteamine hydrochloride was used as the comparative agent.
Chinese hair (approximately 20 cm long) was fixed to a Kilby apparatus and was soaked in the permanent wave first liquid heated to 35° C. over a period of 20 minutes. Thereafter, the hair was lightly towel dried such that the first liquid would not drip. The hair was then given the bromate-based permanent wave second liquid, and was allowed to stand at 25° C. for 10 minutes. After the completion of the treatment with the second liquid, the hair was rinsed with running water and was removed from the Kilby apparatus, followed by drying. The dried hair was measured and the wave efficiency was determined from the following equation. Wave efficiency(%)=100−[100×(B−A)]÷(C−A) wherein:
A: Distance between the first and sixth rods of the Kilby apparatus (actual measurement value between the central points of the rods)
B: Length of six waves of curled hair
C: Length of straightened six waves of curled hair
A permanent wave first liquid was prepared as described in Example 1, except that TGE-1 was replaced with the alkoxyalkyl mercaptocarboxylate indicated in Table 1. The permanent wave first liquid contained the alkoxyalkyl mercaptocarboxylate in an amount of 2% in terms of reducing power of thioglycolic acid.
Hair was permanent waved and the wave efficiency was obtained by the procedure of Example 1 with use of the permanent wave first liquid prepared as above and the permanent wave second liquid used in Example 1.
A permanent wave first liquid was prepared as described in Example 1, except that TGE-1 was replaced with the cysteamine hydrochloride indicated in Table 1. The permanent wave first liquid contained the […] in an amount of 2% in terms of reducing power of thioglycolic acid.

Molecule	Wave efficiency (pH 6 first liquid) [%]	Wave efficiency (pH 7.5 first liquid) [%]	Wave efficiency (pH 9 first liquid) [%]	Behaviour of wave efficiency across pH range (neutral to acidic versus alkaline pH, summary of Table 1)
2-butoxyethyl thiolactate [TNE-3]	73	73	72	
NCCS [Cysteamine hydrochloride, cysteamine hydrochloride, reference compound]	52	65	73	drastic deterioration of wave efficiency with the pH lowering to a neutral to acidic region
CCOCCOC(=O)CS [TGE-2, 2-ethoxyethyl thioglycolate]	84	87	86	
CCCCOCCOC(=O)CS [TGE-3, 2-butoxyethyl thioglycolate]	79	79	82	
CCOCCOCCOC(=O)CS [TGE-5, 5-ethoxy-3-oxapentyl thioglycolate]	70	70	71	
COCCOCCOCCOC(=O)CS [TGE-6, 8-methoxy-3,6-dioxaoctyl thioglycolate]	63	67	65	
COCC(C)OC(=O)CS (stereo not shown) [TGE-7, 2-methoxy-1-methylethyl thioglycolate]	79	81	81	
CCOCC(C)OC(=O)CS (stereo not shown) [TGE-8, 2-ethoxy-1-methylethyl thioglycolate]	80	82	83	
COCCOCCOCCOC(=O)CS [TGE-9, 8-methoxy-3,6-dioxaoctyl thioglycolate]	75	75	76	
